Values quoted from earlier work, collected in patent publication US20050244465A1, “Drug delivery systems and methods for treatment of an eye” (Allergan, Inc., priority 2004, published 2005).

Conditions: efficacy in vivo; 25 mg hydrocortisone equivalent to 1 mg dexamethasone

## C[C@]12CCC(=O)C=C1CC[C@@H]1[C@@H]2[C@@H](O)C[C@@]2(C)[C@H]1CC[C@]2(O)C(=O)CO [hydrocortisone]
  potency relative to dexamethasone: approximately twentyfivefold less potent than dexamethasone
